Results on 2 compounds are retold here after patent US6858393B1, “Chain terminators for DNA synthesis” (Stratagene California, priority 2002, dated 2005).

Molecules are shown by their SMILES.

The assay relates to DNA polymerase (JDF-3 P41OL/A485T). Put plainly: Assay for incorporation of chain terminators (primer extension, denaturing PAGE on ABI 377 sequencer). Type of assay: biochemical. The settings on record: for terminator/dNTP ratio giving a similar pattern (signal strength and length): FIG. 8, ddATP lane 2, PME-App lane 3, dNTPs each at 50 μM, 25 cycles. As to the method:
Reactions (20 μl) consisted of 0.5 pmol fluorescein-labeled primer pFI-20, 1 pmol pBluescript II, 5 U DNA polymerase (JDF-3 P41OL/A485T), all four dNTPs (each at 50 μM) and varying concentrations of only ddATP or PME-App in 20 mM Tris pH 8.8, 10 mM (NH4)2SO4, and 2 mM MgSO4. Reactions were incubated in a Perkin-Elmer 9600 for 25 cycles as follows: 95° C. for 30 s, 50° C. for 30 s and 72° C. for 4 min. The reactions were quenched with ice-cold 0.2 M EDTA (final concentration), dried, and the pellets dissolved in a 3:1 formamide: EDTA/blue dextran. Reactions were then analyzed by 6% denaturing PAGE on an ABI 377 sequencer.
The relative ratio can be determined more exactly by repeating the reactions over a narrower range of ratios.

As to `Nc1ncnc2c1ncn2CCOCP(=O)(O)OP(=O)(O)OP(=O)(O)O` [PME-App, PME-adenine diphosphate], the “terminator/dNTP ratio giving a similar pattern (signal strength and length)” value is reported as 1/5. In the case of `Nc1ncnc2c1ncn2[C@H]1CC[C@@H](COP(=O)(O)OP(=O)(O)OP(=O)(O)O)O1` [ddATP], the “terminator/dNTP ratio giving a similar pattern (signal strength and length)” value is recorded as 1/10. In addition, the “relative incorporation efficiency of ddATP versus PME-App” value (ddATP better than PME-App, from comparison of lane patterns in FIG. 8, all four dNTPs each at 50 μM) came out at 2 fold.
